System: 324938-238-R-J1-PDC complex spheroids viability
Test: Anticancer human tumor 324938-238-R-J1-PDC patient-derived bladder carcinoma cell line growth inhibition [CLK]
Settings: for IC50: curve of first compound; for viability, T/C: stronger effect = lower value
Method in brief: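 Patient-derived tumor cells grown as complex spheroids with HUVEC endothelial cells and mesenchymal stem cells, treated with drug combinations. Concentrations descend in half-log steps from near clinical Cmax, or from 10 microM if Cmax unknown.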

[1] = second compound 0.0316 µM, first compound 0.0316 µM
[2] = second compound 0.0316 µM, first compound 0.1 µM
[3] = second compound 0.0316 µM, first compound 0.316 µM
[4] = second compound 0.0316 µM, first compound 1 µM
[5] = second compound 0.0316 µM, first compound 3.16 µM
[6] = second compound 0.0316 µM, first compound 10 µM
[7] = second compound 0.1 µM, first compound 0.0316 µM
[8] = second compound 0.1 µM, first compound 0.1 µM
[9] = second compound 0.1 µM, first compound 0.316 µM
[10] = second compound 0.1 µM, first compound 1 µM
[11] = second compound 0.1 µM, first compound 3.16 µM
[12] = second compound 0.1 µM, first compound 10 µM
[13] = second compound 0.316 µM, first compound 0.0316 µM
[14] = second compound 0.316 µM, first compound 0.1 µM
[15] = second compound 0.316 µM, first compound 0.316 µM
[16] = second compound 0.316 µM, first compound 1 µM
[17] = second compound 0.316 µM, first compound 3.16 µM
[18] = second compound 0.316 µM, first compound 10 µM
[19] = second compound 1 µM, first compound 0.0316 µM
[20] = second compound 1 µM, first compound 0.1 µM
[21] = second compound 1 µM, first compound 0.316 µM
[22] = second compound 1 µM, first compound 1 µM
[23] = second compound 1 µM, first compound 3.16 µM
[24] = second compound 1 µM, first compound 10 µM
[25] = second compound 3.16 µM, first compound 0.0316 µM
[26] = second compound 3.16 µM, first compound 0.1 µM
[27] = second compound 3.16 µM, first compound 0.316 µM
[28] = second compound 3.16 µM, first compound 1 µM
[29] = second compound 3.16 µM, first compound 3.16 µM
[30] = second compound 3.16 µM, first compound 10 µM
[31] = second compound 10 µM, first compound 0.0316 µM
[32] = second compound 10 µM, first compound 0.1 µM
[33] = second compound 10 µM, first compound 0.316 µM
[34] = second compound 10 µM, first compound 1 µM
[35] = second compound 10 µM, first compound 3.16 µM
[36] = second compound 10 µM, first compound 10 µM
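Further: viability read after seven days of drug exposure.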
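Wherever viability, T/C is given: 100% = DMSO vehicle control wells.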

COC1C=CCC(C)C(C)S(=O)(=O)NC(=O)c2ccc3c(c2)N(CC2CCC21)CC1(CCCc2cc(Cl)ccc21)CO3 (stereo unspecified) + CNC(=O)c1ccc(Nc2nc(OC3CCCC3)c3c(-c4ccc5nc(C)oc5c4)c[nH]c3n2)c(OC)c1
IC50 (second compound 0.0316 µM): 210 nM
IC50 (second compound 0.1 µM): < 31.6 nM
IC50 (second compound 0.316 µM): < 31.6 nM
IC50 (second compound 1 µM): < 31.6 nM
IC50 (second compound 3.16 µM): < 31.6 nM
IC50 (second compound 10 µM): < 31.6 nM
viability, T/C [1]: 89.6%
viability, T/C [2]: 79.6%
viability, T/C [3]: 32.8%
viability, T/C [4]: 21.8%
viability, T/C [5]: 15.3%
viability, T/C [6]: 7.03%
viability, T/C [7]: 31.7%
viability, T/C [8]: 27.9%
viability, T/C [9]: 24.4%
viability, T/C [10]: 15.4%
viability, T/C [11]: 22.5%
viability, T/C [12]: 8.36%
viability, T/C [13]: 18%
viability, T/C [14]: 15.1%
viability, T/C [15]: 12.9%
viability, T/C [16]: 12.1%
viability, T/C [17]: 10.7%
viability, T/C [18]: 7.76%
viability, T/C [19]: 15.1%
viability, T/C [20]: 13.3%
viability, T/C [21]: 11.8%
viability, T/C [22]: 11.2%
viability, T/C [23]: 11.3%
viability, T/C [24]: 7.89%
viability, T/C [25]: 16.1%
viability, T/C [26]: 13.2%
viability, T/C [27]: 13.1%
viability, T/C [28]: 10.6%
viability, T/C [29]: 11.4%
viability, T/C [30]: 8.28%
viability, T/C [31]: 14.7%
viability, T/C [32]: 15%
viability, T/C [33]: 15%
viability, T/C [34]: 10.7%
viability, T/C [35]: 11.6%
viability, T/C [36]: 9.83%

CCc1c2c(nc3ccc(O)cc13)-c1cc3c(c(=O)n1C2)COC(=O)[C@]3(O)CC + CN1CCN(c2cc(C(=O)Nc3cc4cc(-c5cnn(C)c5)ccc4cn3)ccn2)CC1
IC50 (second compound 0.0316 µM): < 3.16 nM
IC50 (second compound 0.1 µM): < 3.16 nM
IC50 (second compound 0.316 µM): < 3.16 nM
IC50 (second compound 1 µM): < 3.16 nM
IC50 (second compound 3.16 µM): < 3.16 nM
IC50 (second compound 10 µM): < 3.16 nM
viability, T/C (second compound 0.0316 µM, first compound 0.00316 µM): 14.9%
viability, T/C (second compound 0.0316 µM, first compound 0.01 µM): 10.1%
viability, T/C [1]: 11.5%
viability, T/C [2]: 9.42%
viability, T/C [3]: 8.03%
viability, T/C [4]: 1.47%
viability, T/C (second compound 0.1 µM, first compound 0.00316 µM): 12.7%
viability, T/C (second compound 0.1 µM, first compound 0.01 µM): 10.3%
viability, T/C [7]: 8.87%
viability, T/C [8]: 8.12%
viability, T/C [9]: 6.95%
viability, T/C [10]: 1.21%
viability, T/C (second compound 0.316 µM, first compound 0.00316 µM): 10.5%
viability, T/C (second compound 0.316 µM, first compound 0.01 µM): 7.5%
viability, T/C [13]: 4.44%
viability, T/C [14]: 3.89%
viability, T/C [15]: 0.83%
viability, T/C [16]: 0.18%
viability, T/C (second compound 1 µM, first compound 0.00316 µM): 0.42%
viability, T/C (second compound 1 µM, first compound 0.01 µM): 0.28%
viability, T/C [19]: 0.24%
viability, T/C [20]: 0.06%
viability, T/C [21]: 0.09%
viability, T/C [22]: 0.38%
viability, T/C (second compound 3.16 µM, first compound 0.00316 µM): 0.16%
viability, T/C (second compound 3.16 µM, first compound 0.01 µM): 0.17%
viability, T/C [25]: 0.19%
viability, T/C [26]: 0.1%
viability, T/C [27]: 0.16%
viability, T/C [28]: 0.14%
viability, T/C (second compound 10 µM, first compound 0.00316 µM): 0.1%
viability, T/C (second compound 10 µM, first compound 0.01 µM): 0.11%
viability, T/C [31]: 0.17%
viability, T/C [32]: 0.11%
viability, T/C [33]: 0.16%
viability, T/C [34]: 0.16%

CC1(C)CCC(CN2CCN(c3ccc(C(=O)NS(=O)(=O)c4ccc(NCC5CCOCC5)c([N+](=O)[O-])c4)c(Oc4cnc5[nH]ccc5c4)c3)CC2)=C(c2ccc(Cl)cc2)C1 + CN1CCN(c2cc(C(=O)Nc3cc4cc(-c5cnn(C)c5)ccc4cn3)ccn2)CC1
IC50 (second compound 0.0316 µM): 6720 nM
IC50 (second compound 0.1 µM): 1480 nM
IC50 (second compound 0.316 µM): < 31.6 nM
IC50 (second compound 1 µM): < 31.6 nM
IC50 (second compound 3.16 µM): < 31.6 nM
IC50 (second compound 10 µM): < 31.6 nM
viability, T/C [1]: 79.6%
viability, T/C [2]: 90.2%
viability, T/C [3]: 80.3%
viability, T/C [4]: 81%
viability, T/C [5]: 82.8%
viability, T/C [6]: 32.7%
viability, T/C [7]: 51.9%
viability, T/C [8]: 55.4%
viability, T/C [9]: 47.4%
viability, T/C [10]: 54.9%
viability, T/C [11]: 46.2%
viability, T/C [12]: 26.4%
viability, T/C [13]: 25.2%
viability, T/C [14]: 22.9%
viability, T/C [15]: 19%
viability, T/C [16]: 24.8%
viability, T/C [17]: 21.5%
viability, T/C [18]: 11.6%
viability, T/C [19]: 1.53%
viability, T/C [20]: 1.38%
viability, T/C [21]: 1.4%
viability, T/C [22]: 1.48%
viability, T/C [23]: 1.08%
viability, T/C [24]: 0.34%
viability, T/C [25]: 0.12%
viability, T/C [26]: 0.21%
viability, T/C [27]: 0.14%
viability, T/C [28]: 0.14%
viability, T/C [29]: 0.11%
viability, T/C [30]: 0.16%
viability, T/C [31]: 0.12%
viability, T/C [32]: 0.16%
viability, T/C [33]: 0.16%
viability, T/C [34]: 0.14%
viability, T/C [35]: 0.19%
viability, T/C [36]: 0.19%
